Measurements: patent US11229636B2, “Substituted tetrahydroquinolinone compounds as ROR gamma modulators” (Aurigene Discovery Technologies Limited, priority 2015, dated 2022)

Columns and labels:
[1] = molecular target: ROR gamma ligand binding domain (Homo sapiens (Human), UniProt P51449); test: ROR gamma luciferase reporter assay (GAL4-ROR gamma LBD, HEK293 cells); type: cell-based; details: 48 hours treatment, read-out: RORγ luciferase Reporter assay: IC50 (nM) (in range)
Procedure, shortened: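 HEK293 cells were co-transfected with a GAL4 DBD–RORγ LBD fusion (hRluc vector) and a 9xGAL4 UAS luc2P reporter, then treated with compounds for 48 h. Bright-Glo luminescence was used to derive potency.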

RORγ LBD = RORγ LBD (Homo sapiens (Human), UniProt P51449); test: ROR gamma radio-ligand binding assay (3H 25-Hydroxycholesterol competitive displacement, dextran charcoal method); details: for inhibition at 1 µM / RORγ ligand binding assay: % inhibition @1 μM: 1 μM compound; for inhibition at 10 µM / RORγ ligand binding assay: % inhibition @ 10 μM: 10 μM compound; for IC50: in range
Description: Gene corresponding to the ligand binding domain of RORγ (247-497 amino acids) was sub-cloned into pGEX4T1 vector. Transformants of E. coli BL21 (DE3) containing pGEX4T1-RORγ (247-497) were grown to an OD of 0.8 at 37° C. and induced with 0.5 mM isopropyl-β-D-thiogalactopyranoside (IPTG) for 18 hours at 18° C. Cells were harvested and resuspended in 20 mM Tris-HCl (pH 8.5), 0.3 M NaCl, 10% Glycerol, 2 mM β-Me (β-Mercaptoethanol), 2 mM CHAPS, protease inhibitors, 0.6 mM PMSF and Lysozyme. Supernatant of lysate was passed through glutathione sepharose 4B affinity beads (GE health care) pre-equilibrated with 20 mM Tris-HCl (pH 8.5), 0.3 M NaCl, 10% Glycerol, 2 mM β-Me. RORγ was eluted using a gradient of reduced glutathione (3-20 mM). Fractions containing RORγ protein were pooled, concentrated and passed through Superdex 75 gel filtration (GE health care) column equilibrated with 20 mM Na-phosphate pH 8.0, 0.2 M NaCl, 10% glycerol. The peak fractions from gel filtration column were pooled and stored at −80° C. for Binding assay.
ROR gamma radioligand binding was performed using ^3H 25-Hydroxycholesterol in a competitive displacement assay using dextran charcoal method. Using 5 nM ^3H 25-Hydroxycholesterol with 300 ng RORγ LBD (in house expressed in E. coli) along with the compound were incubated in the binding buffer (50 mM HEPES, pH 7.5, 150 mM NaCl, 0.01% BSA and 5 mM MgCl2) for 30 min at room temperature. Then dextran-charcoal mixture (0.5% charcoal: 0.05% dextran) was used for separation and the supernatant was read on the Perkin Elmer Trilux Microbeta counter. Dose response curves were generated for 10 compound concentrations using GraphPad Prism software Version 5 (San Diego, Calif., USA) using non-linear regression curve fit for sigmoidal dose response (variable slope).

RORγ LBD, sequence (P51449 268-518): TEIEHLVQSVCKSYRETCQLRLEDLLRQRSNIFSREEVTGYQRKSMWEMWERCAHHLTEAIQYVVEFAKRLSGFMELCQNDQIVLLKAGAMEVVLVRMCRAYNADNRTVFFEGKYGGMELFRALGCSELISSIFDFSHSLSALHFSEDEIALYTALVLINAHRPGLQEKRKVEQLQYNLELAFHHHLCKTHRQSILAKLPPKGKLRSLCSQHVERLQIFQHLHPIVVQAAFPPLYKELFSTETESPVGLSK
ROR gamma ligand binding domain, sequence (P51449 269-508): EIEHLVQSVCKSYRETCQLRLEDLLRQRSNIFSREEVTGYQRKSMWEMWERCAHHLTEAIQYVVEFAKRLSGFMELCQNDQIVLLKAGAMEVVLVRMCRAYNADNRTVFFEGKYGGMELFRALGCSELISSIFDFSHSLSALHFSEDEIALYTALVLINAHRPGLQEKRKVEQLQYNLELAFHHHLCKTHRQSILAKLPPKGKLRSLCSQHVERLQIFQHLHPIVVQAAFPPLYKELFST

IC50 [1] [nM] | inhibition at 1 µM (RORγ LBD) [%] | inhibition at 10 µM (RORγ LBD) [%] | IC50 (RORγ LBD) [nM] | RORγ ligand binding assay: % inhibition @ 10 μM (RORγ LBD) [%] | RORγ ligand binding assay: % inhibition @1 μM (RORγ LBD) [%] | SMILES
> 500 | 74 | 97 | > 300 |  |  | CCS(=O)(=O)c1ccc(CC(=O)Nc2cc(C)c3c(n2)CCC(C)(c2ccc(C)nn2)C3=O)cc1 (centres unmarked) [Compound 34, N-(4,6-dimethyl-6-(6-methylpyridazin-3-yl)-5-oxo-5,6,7,8-tetrahydroquinolin-2-yl)-2-(4-(ethylsulfonyl)phenyl)acetamide]
100 to 500 | 84 | 89 | < 150 |  |  | CCS(=O)(=O)c1ccc(CC(=O)Nc2ccc3c(n2)CCC(C)(c2ccc(OC)nc2)C3=O)cc1 (centres unmarked) [Compound 2, 2-(4-(ethylsulfonyl)phenyl)-N-(6-(6-methoxypyridin-3-yl)-6-methyl-5-oxo-5,6,7,8-tetrahydroquinolin-2-yl)acetamide]
100 to 500 | 90 | 100 | < 150 |  |  | CCS(=O)(=O)c1ccc(CC(=O)Nc2ccc3c(n2)CCC(C)(c2nccn4cc(C)nc24)C3=O)cc1 (centres unmarked) [Compound 9, 2-(4-(ethylsulfonyl)phenyl)-N-(6-methyl-6-(2-methylimidazo[1,2-a]pyrazin-8-yl)-5-oxo-5,6,7,8-tetrahydroquinolin-2-yl)acetamide]
100 to 500 |  |  | < 150 |  |  | CCS(=O)(=O)c1ccc(CC(=O)Nc2ccc3c(n2)CCC(C)(c2ccc(OC)nn2)C3=O)cc1 (centres unmarked) [Compound 12, 2-(4-(ethylsulfonyl)phenyl)-N-(6-(6-methoxypyridazin-3-yl)-6-methyl-5-oxo-5,6,7,8-tetrahydroquinolin-2-yl)acetamide]
> 500 | 91 |  |  | 36 |  | CCS(=O)(=O)c1ccc(CC(=O)Nc2cc(C)c3c(n2)CCC(C)(c2ccc(OC)nn2)C3=O)cc1 (single isomer, unassigned) [compound 109, 2-(4-(ethylsulfonyl)phenyl)-N-(6-(6-methoxypyridazin-3-yl)-4,6-dimethyl-5-oxo-5,6,7,8-tetrahydroquinolin-2-yl)acetamide]
> 500 | 36 | 100 | > 300 |  |  | CCS(=O)(=O)c1ccc(CC(=O)Nc2ccc3c(n2)CC(C)C(c2ncccc2O)C3=O)cc1 (centres unmarked) [Compound 91, 2-(4-(ethylsulfonyl)phenyl)-N-(6-(3-hydroxypyridin-2-yl)-7-methyl-5-oxo-5,6,7,8-tetrahydroquinolin-2-yl)acetamide]
100 to 500 | 77 | 100 | 150 to 300 |  |  | CCS(=O)(=O)c1ccc(CC(=O)Nc2cc(C)c3c(n2)CCC(C)(c2cc(C)nc(C)n2)C3=O)cc1 (centres unmarked) [Compound 28, N-(6-(2,6-dimethylpyrimidin-4-yl)-4,6-dimethyl-5-oxo-5,6,7,8-tetrahydroquinolin-2-yl)-2-(4-(ethylsulfonyl)phenyl)acetamide]
100 to 500 |  |  | < 150 | 88 | 94 | CCS(=O)(=O)c1ccc(CC(=O)Nc2ccc3c(n2)CCC(C)(c2cc(C)nc(C)n2)C3=O)cc1 (single isomer, unassigned) [compound 104, N-(6-(2,6-dimethylpyrimidin-4-yl)-6-methyl-5-oxo-5,6,7,8-tetrahydroquinolin-2-yl)-2-(4-(ethylsulfonyl)phenyl)acetamide]
> 500 | 44 | 88 |  |  |  | CCS(=O)(=O)c1ccc(CC(=O)Nc2ccc3c(n2)CCC(C)(c2ccc(O)nc2)C3=O)cc1 (centres unmarked) [Compound 40, 2-(4-(ethylsulfonyl)phenyl)-N-(6-(6-hydroxypyridin-3-yl)-6-methyl-5-oxo-5,6,7,8-tetrahydroquinolin-2-yl)acetamide]
> 500 |  |  | > 300 | 28 | 78 | CCS(=O)(=O)c1ccc(CC(=O)Nc2cc(C)c3c(n2)CCC(C)(c2cc(C)nc(C)n2)C3=O)cc1 (single isomer, unassigned) [compound 108, N-(6-(2,6-dimethylpyrimidin-4-yl)-4,6-dimethyl-5-oxo-5,6,7,8-tetrahydroquinolin-2-yl)-2-(4-(ethylsulfonyl)phenyl)acetamide]
< 100 | 96 | 94 | < 150 |  |  | CCS(=O)(=O)c1ccc(CC(=O)Nc2ccc3c(n2)CCC(C)(c2ncc(OC)cn2)C3=O)cc1 (centres unmarked) [Compound 56, 2-(4-(ethylsulfonyl)phenyl)-N-(6-(5-methoxypyrimidin-2-yl)-6-methyl-5-oxo-5,6,7,8-tetrahydroquinolin-2-yl)acetamide]
> 500 |  |  |  | 0 | 26 | CCS(=O)(=O)c1ccc(CC(=O)Nc2ccc3c(n2)CCC(C)(c2cc(C)nc(C)n2)C3=O)cc1 (single isomer, unassigned) [compound 103, N-(6-(2,6-dimethylpyrimidin-4-yl)-6-methyl-5-oxo-5,6,7,8-tetrahydroquinolin-2-yl)-2-(4-(ethylsulfonyl)phenyl)acetamide]
> 500 | 96 | 91 | < 150 |  |  | CCS(=O)(=O)c1ccc(CC(=O)Nc2ccc3c(n2)CCC(C)(c2ccc(C(C)C)nn2)C3=O)cc1 (centres unmarked) [Compound 62, 2-(4-(ethylsulfonyl)phenyl)-N-(6-(6-isopropylpyridazin-3-yl)-6-methyl-5-oxo-5,6,7,8-tetrahydroquinolin-2-yl)acetamide]
> 500 |  |  | > 300 | 19 | 62 | CCS(=O)(=O)c1ccc(CC(=O)Nc2ccc3c(n2)CCC(C)(c2ncc(OC)cn2)C3=O)cc1 (single isomer, unassigned) [compound 111, 2-(4-(ethylsulfonyl)phenyl)-N-(6-(5-methoxypyrimidin-2-yl)-6-methyl-5-oxo-5,6,7,8-tetrahydroquinolin-2-yl)acetamide]
> 500 | 47 | 82 |  |  |  | CCc1ccc(C2(C)CCc3nc(NC(=O)Cc4ccc(S(=O)(=O)CC)cc4)ccc3C2=O)nn1 (centres unmarked) [Compound 41, N-(6-(6-ethylpyridazin-3-yl)-6-methyl-5-oxo-5,6,7,8-tetrahydroquinolin-2-yl)-2-(4-(ethylsulfonyl)phenyl)acetamide]
> 500 | 57 | 84 | 150 to 300 |  |  | CCS(=O)(=O)c1ccc(CC(=O)Nc2ccc3c(n2)CC(C)(C)C(c2ccc(O)cn2)C3=O)cc1 (centres unmarked) [Compound 90, 2-(4-(ethylsulfonyl)phenyl)-N-(6-(5-hydroxypyridin-2-yl)-7,7-dimethyl-5-oxo-5,6,7,8-tetrahydroquinolin-2-yl)acetamide]
100 to 500 | 91 |  | < 150 | 90 |  | CCS(=O)(=O)c1ccc(CC(=O)Nc2cc(C)c3c(n2)CCC(C)(c2cc(C)nc(C)n2)C3=O)cc1 (single isomer, unassigned) [compound 107, N-(6-(2,6-dimethylpyrimidin-4-yl)-4,6-dimethyl-5-oxo-5,6,7,8-tetrahydroquinolin-2-yl)-2-(4-(ethylsulfonyl)phenyl)acetamide]
